Measurements published in US20240025907A1, “QUINAZOLINE PAN-KRas INHIBITORS” (Mirati Therapeutics, Inc., priority 2022, published 2024).
Where two headings read alike, the source gives them in different places.

Legend:
Type in all cases: cell-based
[1] = system: KRas-mediated Phosphorylation of ERK in HCT116 cells; assay: Cisbio HTRF pERK assay, HCT116 cells; settings: for IC50: HCT116 cells, 3 hrs compound, read-out: Inhibition (HTRF IC50 nM) of KRas-mediated Phosphorylation of ERK, HCT116; for inhibition at 0.1 µM: Homo sapiens, HCT-116, HCT116 cells, single point at 100 nM
[2] = system: KRas-mediated Phosphorylation of ERK in H727 cells; assay: Cisbio HTRF pERK assay, H727 cells; settings: for IC50: 3 hrs compound, read-out: Inhibition (HTRF IC50 nM) of KRas-mediated Phosphorylation of ERK, H727; for inhibition at 0.1 µM: Homo sapiens, NCI-H727, single point at 100 nM
[3] = system: KRas-mediated Phosphorylation of ERK in H358 cells; assay: Cisbio HTRF pERK assay, H358 cells; settings: for IC50: H358 cells, 3 hrs compound, read-out: Inhibition (HTRF IC50 nM) of KRas-mediated Phosphorylation of ERK, H358; for inhibition at 0.1 µM: Homo sapiens, NCI-H358, H358 cells, single point at 100 nM
[4] = system: KRas-mediated Phosphorylation of ERK in AsPC-1 cells; assay: Cisbio HTRF pERK assay, AsPC-1 cells; settings: for IC50: 3 hrs compound, read-out: Inhibition (HTRF IC50 nM) of KRas-mediated Phosphorylation of ERK, AsPC-1; for inhibition at 0.1 µM: ASPC1, single point at 100 nM
[5] = system: KRas-mediated Phosphorylation of ERK in A549 cells; assay: Cisbio HTRF pERK assay, A549 cells; settings: for IC50: A549 cells, 3 hrs compound, read-out: Inhibition (HTRF IC50 nM) of KRas-mediated Phosphorylation of ERK, A549; for inhibition at 0.1 µM: Homo sapiens, A549, A549 cells, single point at 100 nM
[6] = system: KRas-mediated Phosphorylation of ERK in H460 cells; assay: Cisbio HTRF pERK assay, H460 cells; settings: for IC50: H460 cells, 3 hrs compound, read-out: Inhibition (HTRF IC50 nM) of KRas-mediated Phosphorylation of ERK, H460; for inhibition at 0.1 µM: Homo sapiens, NCI-H460, H460 cells, single point at 100 nM

Row | SMILES | IC50 [1] [nM] | IC50 [2] [nM] | IC50 [3] [nM] | IC50 ([4]; Homo sapiens, ASPC1, 3 h) [nM] | IC50 [5] [nM] | IC50 [6] [nM] | IC50 [4] [nM] | inhibition at 0.1 µM [2] [%] | inhibition at 0.1 µM ([4]; Homo sapiens) [%] | inhibition at 0.1 µM [1] [%] | inhibition at 0.1 µM [3] [%] | inhibition at 0.1 µM [5] [%] | inhibition at 0.1 µM [6] [%]
1 | CN(C)C(=O)c1cc2n(n1)CCCN(c1nc(OC[C@@]34CCCN3C/C(=C\F)C4)nc3c(F)c(-c4ccc(F)c5sc(N)c(C#N)c45)c(Cl)cc13)C2 (atropisomer, axis not shown) [Example 194, 5-((S)-7-(2-amino-3-cyano-7-fluorobenzo[b]thiophen-4-yl)-6-chloro-8-fluoro-2-(((S,Z)-2-(fluoromethylene)tetrahydro-1H-pyrrolizin-7a(5H)-yl)methoxy)quinazolin-4-yl)-N,N-dimethyl-5,6,7,8-tetrahydro-4H-pyrazolo[1,5-a][1,4]diazepine-2-carboxamide] | 896 | 342 | 128 | 192 | 605 | 427 |  |  |  |  |  |  | 
2 | C[C@@]1(O)COCCN(c2nc(OC[C@@]34CCCN3C[C@H](F)C4)nc3c(F)c(-c4ccc(F)c5sc(N)c(C#N)c45)c(Cl)cc23)C1 (atropisomer, axis not shown; (aS)) [Example 193, 2-amino-4-((S)-6-chloro-8-fluoro-2-(((2R,7aS)-2-fluorotetrahydro-1H-pyrrolizin-7a(5H)-yl)methoxy)-4-((S)-6-hydroxy-6-methyl-1,4-oxazepan-4-yl)quinazolin-7-yl)-7-fluorobenzo[b]thiophene-3-carbonitrile] |  | 686 |  |  |  |  | 414 |  |  |  |  |  | 
3 | N#Cc1c(N)sc2c(F)ccc(-c3c(Cl)cc4c(N5CCCn6nnc(Cl)c6C5)nc(OC[C@@]56CCCN5C[C@H](F)C6)nc4c3F)c12 (single isomer, unassigned) [Example 196] |  | 2820 | 472 |  | 2420 |  | 531 |  |  |  |  |  | 
4 | N#Cc1c(N)sc2c(F)ccc(-c3c(Cl)cc4c(N5CCCn6nnc(Cl)c6C5)nc(OC[C@@]56CCCN5C[C@H](F)C6)nc4c3F)c12 (single isomer, unassigned) [Example 197] |  | 12 | 3 |  | 10 |  | 2 |  |  |  |  |  | 
5 | CCc1c(F)ccc2cc(O)cc(-c3c(F)cc4c(N5CCC[C@@](C)(O)C5)nc(OCC5(CN(C)C)CC5)nc4c3F)c12 [Example 11, (R)-1-(2-((1-((dimethylamino)methyl)cyclopropyl)methoxy)-7-((R)-8-ethyl-7-fluoro-3-hydroxynaphthalen-1-yl)-6,8-difluoroquinazolin-4-yl)-3-methylpiperidin-3-ol] |  |  |  |  |  |  |  | 49 | 91 |  |  |  | 
6 | CCc1c(F)ccc2cc(O)cc(-c3ccc4c(N5CCCC6(CCO6)C5)nc(OC[C@@]56CCCN5C[C@H](F)C6)nc4c3F)c12 (stereo partly drawn) [Example 71, 5-ethyl-6-fluoro-4-(8-fluoro-2-(((2R,7aS)-2-fluorohexahydro-1H-pyrrolizin-7a-yl)methoxy)-4-(1-oxa-6-azaspiro[3.5]nonan-6-yl)quinazolin-7-yl)naphthalen-2-ol] |  |  |  |  |  |  |  | 65 | 90 | 38 | 94 | 82 | 87
7 | CCc1c(F)ccc2cc(O)cc(-c3ccc4c(N5CCCn6nc(C(=O)N7CCOCC7)c(Cl)c6C5)nc(OC[C@@]56CCCN5C[C@H](F)C6)nc4c3F)c12 [Example 73, (3-chloro-5-(7-(8-ethyl-7-fluoro-3-hydroxynaphthalen-1-yl)-8-fluoro-2-(((2R,7aS)-2-fluorohexahydro-1H-pyrrolizin-7a-yl)methoxy)quinazolin-4-yl)-5,6,7,8-tetrahydro-4H-pyrazolo[1,5-a][1,4]diazepin-2-yl)(morpholino)methanone] |  |  |  |  |  |  |  | 71 | 97 | 48 | 97 | 71 | 
8 | CCc1c(F)ccc2cc(O)cc(-c3ccc4c(N5CCCn6nc(C(=O)N(C)C)c(Cl)c6C5)nc(OC[C@@]56CCCN5C[C@H](F)C6)nc4c3F)c12 [Example 74, 3-chloro-5-(7-(8-ethyl-7-fluoro-3-hydroxynaphthalen-1-yl)-8-fluoro-2-(((2R,7aS)-2-fluorohexahydro-1H-pyrrolizin-7a-yl)methoxy)quinazolin-4-yl)-N,N-dimethyl-5,6,7,8-tetrahydro-4H-pyrazolo[1,5-a][1,4]diazepine-2-carboxamide] |  |  |  |  |  |  |  | 78 | 99 | 38 | 98 | 72 | 
9 | CCc1c(F)ccc2cc(O)cc(-c3ccc4c(N5CCCn6nc(C(=O)N(C)C)c(C)c6C5)nc(OC[C@@]56CCCN5C[C@H](F)C6)nc4c3F)c12 [Example 75, 5-(7-(8-ethyl-7-fluoro-3-hydroxynaphthalen-1-yl)-8-fluoro-2-(((2R,7aS)-2-fluorohexahydro-1H-pyrrolizin-7a-yl)methoxy)quinazolin-4-yl)-N,N,3-trimethyl-5,6,7,8-tetrahydro-4H-pyrazolo[1,5-a][1,4]diazepine-2-carboxamide] |  |  |  |  |  |  |  | 73 | 95 | 29 | 98 | 79 | 
10 | CCc1c(F)ccc2cc(O)cc(-c3c(F)cc4c(N5CCCn6nc(C(=O)N7CCN(C)CC7)cc6C5)nc(OC[C@@]56CCCN5C[C@H](F)C6)nc4c3F)c12 [Example 76, (5-(7-(8-ethyl-7-fluoro-3-hydroxynaphthalen-1-yl)-6,8-difluoro-2-(((2R,7aS)-2-fluorohexahydro-1H-pyrrolizin-7a-yl)methoxy)quinazolin-4-yl)-5,6,7,8-tetrahydro-4H-pyrazolo[1,5-a][1,4]diazepin-2-yl)(4-methylpiperazin-1-yl)methanone] |  |  |  |  |  |  |  | 43 | 90 | 16 | 90 | 42 | 31
11 | CCc1c(F)ccc2cc(O)cc(-c3c(F)cc4c(N5CCCC6(CCO6)C5)nc(OC[C@@]56CCCN5C[C@H](F)C6)nc4c3F)c12 (stereo partly drawn) [Example 77, 4-(6,8-difluoro-2-(((2R,7aS)-2-fluorotetrahydro-1H-pyrrolizin-7a(5H)-yl)methoxy)-4-(1-oxa-6-azaspiro[3.5]nonan-6-yl)quinazolin-7-yl)-5-ethyl-6-fluoronaphthalen-2-ol] |  |  |  |  |  |  |  | 66 | 87 | 45 | 96 | 82 | 86
12 | CCc1c(F)ccc2cc(O)cc(-c3c(F)cc4c(N5CCCn6nc(C(=O)N(C)C)c(Cl)c6C5)nc(OC[C@@]56CCCN5C[C@H](F)C6)nc4c3F)c12 [Example 78, 3-chloro-5-(7-(8-ethyl-7-fluoro-3-hydroxynaphthalen-1-yl)-6,8-difluoro-2-(((2R,7aS)-2-fluorohexahydro-1H-pyrrolizin-7a-yl)methoxy)quinazolin-4-yl)-N,N-dimethyl-5,6,7,8-tetrahydro-4H-pyrazolo[1,5-a][1,4]diazepine-2-carboxamide] |  |  |  |  |  |  |  | 75 | 98 | 75 | 96 | 94 | 81
13 | CCc1c(F)ccc2cc(O)cc(-c3c(F)cc4c(N5CCCC6(CCO6)C5)nc(OCC5(CN(C)C)CC5)nc4c3F)c12 (stereo not drawn) [Example 82, 4-(2-((1-((dimethylamino)methyl)cyclopropyl)methoxy)-6,8-difluoro-4-(1-oxa-6-azaspiro[3.5]nonan-6-yl)quinazolin-7-yl)-5-ethyl-6-fluoronaphthalen-2-ol] |  |  |  |  |  |  |  | 34 | 72 | 24 | 80 | 33 | 63
14 | N#Cc1c(N)sc2c(F)ccc(-c3c(Cl)cc4c(N5CC6CCC(C5)N6)nc(OC[C@@]56CCCN5C/C(=C\F)C6)nc4c3F)c12 [Example 179, (S)-4-(4-((1R,5S)-3,8-diazabicyclo[3.2.1]octan-3-yl)-6-chloro-8-fluoro-2-(((S,Z)-2-(fluoromethylene)tetrahydro-1H-pyrrolizin-7a(5H)-yl)methoxy)quinazolin-7-yl)-2-amino-7-fluorobenzo[b]thiophene-3-carbonitrile] | 3770 | 6810 | 2610 |  | 3140 | 2320 | 116 |  |  |  |  |  | 
